Measurements taken from patent US10463644B2, “Uses of sesquiterpene lactone compounds and their derivatives in drugs preparation” (ACCENDATECH, priority 2013, dated 2019).
Read-outs that look alike come from different tables or passages of the source.

Columns and labels:
cancer cells = test: Survival rate of cancer cells after test compound is added (flow cytometry, Annexin V-FITC/PI, clinical specimen); type: cell-based, patient; settings: Homo sapiens, 18 h, read-out: Survival rate (%) All cells (Stem cells and ordinary cells)
Method in brief: (§1)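 Mononuclear cells from fresh or cryopreserved clinical samples, isolated by Ficoll gradient and held in serum-free IMDM (1×10^6/mL), received compound for 18 h. After labelling with marker antibodies (CD34+CD38+ for AML), Annexin V-FITC and PI staining was analysed by flow cytometry.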

normal cells = test: Survival rate of normal cells after test compound is added (flow cytometry, Annexin V-FITC/PI); type: cell-based; settings: 18 h
Method in brief: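 Survival was determined in clinical specimens after an 18 h compound treatment, using Annexin V-FITC/PI apoptosis staining and flow cytometry.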

cancer stem cells = test: Survival rate of cancer stem cells after test compound is added (flow cytometry, Annexin V-FITC/PI, clinical specimen); type: cell-based, patient; settings: Homo sapiens, 18 h
Method in brief: as §1

[1] = tested on: IL-1β secreted by synoviocyte; test: Content of IL-1β in culture supernatant of synoviocyte of RA model rats given test compound; type: in vivo; settings: rat RA model, dose 30 mg/kg.2d; normal control 0.16 ± 0.034, NaCl 0.49 ± 0.136
Method in brief: (§2)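 Read-out: TNF-α, PGE2 and IL-1β levels in supernatant from cultured synoviocytes. Cells came from RA model rats treated with compound at 30 mg/kg.2d, and from NaCl-treated and normal control rats.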

[2] = tested on: PGE2 secreted by synoviocyte; test: Content of PGE2 in culture supernatant of synoviocyte of RA model rats given test compound; type: in vivo; settings: rat RA model, dose 30 mg/kg.2d; normal control 8.34 ± 1.29, NaCl 32.44 ± 10.32
Method in brief: as §2

[3] = Head and neck squamous cell carcinomas
[4] = read-out: Survival rate (%) All cells (Stem cells and ordinary cells)
[5] = read-out: Survival rate (%) Stem cells

In the case of CCOC(=O)[C@@H]1CCCN1C[C@@H]1C(=O)O[C@H]2[C@H]1CCC1(CC1)[C@@H]1CCC3(CC3)[C@H]21 [Compound 29], the viability at 10 µM (cancer cells; AML) is reported as 91%, the viability at 20 µM (cancer cells; AML) is reported as 88% and the viability at 10 µM (cancer cells; Brain glioma) is reported as 89%. It also gave a viability at 20 µM (cancer cells; Brain glioma) of 86%, a viability at 10 µM (cancer cells; Brain tumor) of 94% and a viability at 20 µM (cancer cells; Brain tumor) of 87%. The viability at 10 µM (cancer cells; Breast cancer) was 88%, the viability at 20 µM (cancer cells; Breast cancer) was 81% and the viability at 10 µM (cancer cells; CLL) was 88%. The viability at 20 µM (cancer cells; CLL) was 85%, the viability at 10 µM (cancer cells; CML) was 87% and the viability at 20 µM (cancer cells; CML) was 83%. The viability at 10 µM (cancer cells; Children hepatoblastoma) was 92%, the viability at 20 µM (cancer cells; Children hepatoblastoma) was 89% and the viability at 10 µM (cancer cells; Colon adenocarcinoma) was 87%. The viability at 20 µM (cancer cells; Colon adenocarcinoma) was 83%, the viability at 10 µM (cancer cells; Colorectal cancer) was 91% and the viability at 20 µM (cancer cells; Colorectal cancer) was 88%. For the same molecule, the viability at 10 µM (cancer cells; Gastric cancer) was 88%, the viability at 20 µM (cancer cells; Gastric cancer) was 81% and the viability at 10 µM (cancer cells; Gastrointestinal tumor) was 87%. The viability at 20 µM (cancer cells; Gastrointestinal tumor) was 83%, the viability at 10 µM (cancer cells; Glioma) was 91% and the viability at 20 µM (cancer cells; Glioma) was 88%. The viability at 10 µM (cancer cells; [3]) was 88%, the viability at 20 µM (cancer cells; [3]) was 85% and the viability at 10 µM (cancer cells; Laryngeal cancer) was 93%. It also gave a viability at 20 µM (cancer cells; Laryngeal cancer) of 86%, a viability at 10 µM (cancer cells; Liver cancer) of 92% and a viability at 20 µM (cancer cells; Liver cancer) of 89%. The viability at 10 µM (cancer cells; Lung adenocarcinoma) was 91%, the viability at 20 µM (cancer cells; Lung adenocarcinoma) was 89% and the viability at 10 µM (cancer cells; Lung cancer) was 94%. For the same molecule, the viability at 20 µM (cancer cells; Lung cancer) was 87%, the viability at 10 µM (cancer cells; Malignant melanoma) was 91% and the viability at 20 µM (cancer cells; Malignant melanoma) was 87%. The viability at 10 µM (cancer cells; Nasopharynx cancer) was 88%, the viability at 20 µM (cancer cells; Nasopharynx cancer) was 85% and the viability at 10 µM (cancer cells; Ovarian cancer) was 91%. It also gave a viability at 20 µM (cancer cells; Ovarian cancer) of 89%, a viability at 10 µM (cancer cells; Pancreatic cancer) of 88% and a viability at 20 µM (cancer cells; Pancreatic cancer) of 89%. It also gave a viability at 10 µM (cancer cells; Prostate cancer) of 93%, a viability at 20 µM (cancer cells; Prostate cancer) of 86% and a viability at 10 µM (cancer cells; Retinoblastoma) of 92%. It also gave a viability at 20 µM (cancer cells; Retinoblastoma) of 89%, a viability at 10 µM (cancer cells; Skin cancer) of 91% and a viability at 20 µM (cancer cells; Skin cancer) of 87%. It also gave a viability at 10 µM (normal cells; [4]) of 96%, a viability at 10 µM (normal cells; [5]) of 93% and a viability at 20 µM (normal cells; [4]) of 95%. The viability at 20 µM (normal cells; [5]) was 92%, the viability at 10 µM (cancer stem cells; AML) was 84% and the viability at 20 µM (cancer stem cells; AML) was 78%. It also gave a viability at 10 µM (cancer stem cells; Brain glioma) of 82%, a viability at 20 µM (cancer stem cells; Brain glioma) of 76% and a viability at 10 µM (cancer stem cells; Brain tumor) of 87%. For the same molecule, the viability at 20 µM (cancer stem cells; Brain tumor) was 76%, the viability at 10 µM (cancer stem cells; Breast cancer) was 79% and the viability at 20 µM (cancer stem cells; Breast cancer) was 72%. The viability at 10 µM (cancer stem cells; CLL) was 85%, the viability at 20 µM (cancer stem cells; CLL) was 79% and the viability at 10 µM (cancer stem cells; CML) was 81%. The viability at 20 µM (cancer stem cells; CML) was 75%, the viability at 10 µM (cancer stem cells; Children hepatoblastoma) was 85% and the viability at 20 µM (cancer stem cells; Children hepatoblastoma) was 77%. For the same molecule, the viability at 10 µM (cancer stem cells; Colon adenocarcinoma) was 81%, the viability at 20 µM (cancer stem cells; Colon adenocarcinoma) was 75% and the viability at 10 µM (cancer stem cells; Colorectal cancer) was 84%. It also gave a viability at 20 µM (cancer stem cells; Colorectal cancer) of 78%, a viability at 10 µM (cancer stem cells; Gastric cancer) of 79% and a viability at 20 µM (cancer stem cells; Gastric cancer) of 72%. For the same molecule, the viability at 10 µM (cancer stem cells; Gastrointestinal tumor) was 81%, the viability at 20 µM (cancer stem cells; Gastrointestinal tumor) was 75% and the viability at 10 µM (cancer stem cells; Glioma) was 84%. The viability at 20 µM (cancer stem cells; Glioma) was 78%, the viability at 10 µM (cancer stem cells; [3]) was 82% and the viability at 20 µM (cancer stem cells; [3]) was 74%. It also gave a viability at 10 µM (cancer stem cells; Laryngeal cancer) of 85%, a viability at 20 µM (cancer stem cells; Laryngeal cancer) of 79% and a viability at 10 µM (cancer stem cells; Liver cancer) of 85%. The viability at 20 µM (cancer stem cells; Liver cancer) was 77%, the viability at 10 µM (cancer stem cells; Lung adenocarcinoma) was 88% and the viability at 20 µM (cancer stem cells; Lung adenocarcinoma) was 81%. The viability at 10 µM (cancer stem cells; Lung cancer) was 87%, the viability at 20 µM (cancer stem cells; Lung cancer) was 76% and the viability at 10 µM (cancer stem cells; Malignant melanoma) was 82%. For the same molecule, the viability at 20 µM (cancer stem cells; Malignant melanoma) was 73%, the viability at 10 µM (cancer stem cells; Nasopharynx cancer) was 85% and the viability at 20 µM (cancer stem cells; Nasopharynx cancer) was 79%. It also gave a viability at 10 µM (cancer stem cells; Ovarian cancer) of 88%, a viability at 20 µM (cancer stem cells; Ovarian cancer) of 81% and a viability at 10 µM (cancer stem cells; Pancreatic cancer) of 82%. For the same molecule, the viability at 20 µM (cancer stem cells; Pancreatic cancer) was 76%, the viability at 10 µM (cancer stem cells; Prostate cancer) was 85% and the viability at 20 µM (cancer stem cells; Prostate cancer) was 79%. For the same molecule, the viability at 10 µM (cancer stem cells; Retinoblastoma) was 85%, the viability at 20 µM (cancer stem cells; Retinoblastoma) was 77% and the viability at 10 µM (cancer stem cells; Skin cancer) was 82%. For the same molecule, the viability at 20 µM (cancer stem cells; Skin cancer) was 73%, the “Content of IL-1β in culture supernatant of synoviocyte (x ± s)” value [1] was 0.34 ± 0.039 ng/mL and the “Content of PGE2 in culture supernatant of synoviocyte (x ± s)” value [2] was 27.64 ± 2.37 ng/mL.
